Common to all, as to test: microbe, parasite or virus in culture
What all share (format): cell-based

Assay [1] relates to A/TX/36/91 (H1N1). Particulars: Influenza A virus, H1N1, MDCK, 168 h.
In assay [2] the test system is A/HK/1/68 (H3N2). Particulars: Influenza A virus, H3N2, MDCK, 168 h.
Assay [3] has as its system A/Perth/265/09 (H1N1). Particulars: Influenza A virus, H1N1, MDCK, 168 h.

SMILES strings stand for the structures.

One may read the EC50 as the midpoint of the concentration-response curve. Read a low EC50 as higher potency in that assay.

Turning to `CC(=O)N[C@H]1[C@H]([C@H](O)[C@H](O)CO)OC(C(=O)O)=C[C@@H]1N=C(N)N` [Zanamivir], the figures for the EC50 in assay [1], in assay [2] and in assay [3] were 0.731 µM, 27.7 µM and 1.52 µM, respectively.

These data come from patent publication US10966954B2, “Electrophilically enhanced phenolic compounds for treating inflammatory related diseases and disorders” (priority 2016, dated 2021).
